Results reported in ChEMBL document CHEMBL2062392, “Structure-Activity Relationship for Thiirane-Based Gelatinase Inhibitors” (ACS Med Chem Lett, 2012).
The source made the active and inactive calls. The rule behind the calls is not given here.

Key:
[1] = molecular target: T1, Interstitial collagenase (Homo sapiens) (UniProt P03956); experiment: Competitive inhibition of human MMP1 using fluorogenic substrate at 20 uM by Dixon plot analysis
T1 sequence (whole entry): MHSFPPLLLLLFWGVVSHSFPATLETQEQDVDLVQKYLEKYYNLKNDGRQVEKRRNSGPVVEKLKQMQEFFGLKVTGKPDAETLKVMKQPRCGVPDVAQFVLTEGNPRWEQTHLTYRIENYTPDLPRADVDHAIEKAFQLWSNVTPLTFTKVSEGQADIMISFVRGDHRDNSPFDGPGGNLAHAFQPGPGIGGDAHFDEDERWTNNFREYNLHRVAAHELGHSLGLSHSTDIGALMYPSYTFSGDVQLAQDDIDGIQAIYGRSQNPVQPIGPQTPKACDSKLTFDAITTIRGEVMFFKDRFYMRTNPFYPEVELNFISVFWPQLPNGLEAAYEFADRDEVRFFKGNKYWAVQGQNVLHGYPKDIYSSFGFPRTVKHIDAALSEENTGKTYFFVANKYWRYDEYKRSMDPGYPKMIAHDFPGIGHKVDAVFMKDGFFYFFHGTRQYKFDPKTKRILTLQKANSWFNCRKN

[2] = molecular target: T2, Stromelysin-1 (Homo sapiens, UniProt P08254); experiment: Competitive inhibition of human MMP3 using fluorogenic substrate at 20 uM by Dixon plot analysis
Target sequence in this assay (P08254 100-477 limits assumed): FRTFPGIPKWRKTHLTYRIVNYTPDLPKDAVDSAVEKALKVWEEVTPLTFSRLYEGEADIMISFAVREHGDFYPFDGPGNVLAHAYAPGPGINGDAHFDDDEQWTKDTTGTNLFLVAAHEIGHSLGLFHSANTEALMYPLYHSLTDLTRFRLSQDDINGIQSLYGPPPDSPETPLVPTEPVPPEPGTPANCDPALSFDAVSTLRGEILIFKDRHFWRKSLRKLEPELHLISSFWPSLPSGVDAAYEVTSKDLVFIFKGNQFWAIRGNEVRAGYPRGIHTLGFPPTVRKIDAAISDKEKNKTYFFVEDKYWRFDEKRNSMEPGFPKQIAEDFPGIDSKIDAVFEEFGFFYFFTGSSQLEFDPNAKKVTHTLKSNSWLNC

[3] = molecular target: 72 kDa type IV collagenase (Homo sapiens, UniProt P08253)
Chain of 72 kDa type IV collagenase (P08253 whole entry): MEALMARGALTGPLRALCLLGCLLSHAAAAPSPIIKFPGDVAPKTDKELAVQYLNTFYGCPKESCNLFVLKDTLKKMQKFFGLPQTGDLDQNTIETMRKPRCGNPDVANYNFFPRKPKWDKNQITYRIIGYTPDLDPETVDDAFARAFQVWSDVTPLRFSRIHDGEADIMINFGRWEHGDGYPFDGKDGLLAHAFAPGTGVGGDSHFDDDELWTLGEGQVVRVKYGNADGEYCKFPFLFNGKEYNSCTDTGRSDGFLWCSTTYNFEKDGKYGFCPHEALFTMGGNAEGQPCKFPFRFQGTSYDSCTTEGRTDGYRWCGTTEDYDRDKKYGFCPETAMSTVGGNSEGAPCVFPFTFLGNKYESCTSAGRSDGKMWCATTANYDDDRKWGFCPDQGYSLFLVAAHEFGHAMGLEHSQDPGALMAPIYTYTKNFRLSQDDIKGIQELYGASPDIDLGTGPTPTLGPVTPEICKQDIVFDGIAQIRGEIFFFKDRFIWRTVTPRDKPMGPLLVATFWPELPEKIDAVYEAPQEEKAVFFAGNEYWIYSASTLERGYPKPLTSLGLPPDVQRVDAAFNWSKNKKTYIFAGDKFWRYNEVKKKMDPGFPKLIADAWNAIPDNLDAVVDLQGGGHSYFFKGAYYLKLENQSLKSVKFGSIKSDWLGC
Description: Competitive inhibition of human MMP2 using fluorogenic substrate by Dixon plot analysis

[4] = test system: Liver; experiment: Half life in rat liver S9 fraction at 10 uM by UPLC analysis; assay type: ADME, subcellular; conditions: s9, 10 µM
[5] = molecular target: Matrix metalloproteinase-14 (Homo sapiens, UniProt P50281)
Description: Competitive inhibition of human MMP14 using fluorogenic substrate by Dixon plot analysis

[6] = molecular target: Matrix metalloproteinase-9 (Homo sapiens, UniProt P14780)
Chain of Matrix metalloproteinase-9 (P14780 whole entry): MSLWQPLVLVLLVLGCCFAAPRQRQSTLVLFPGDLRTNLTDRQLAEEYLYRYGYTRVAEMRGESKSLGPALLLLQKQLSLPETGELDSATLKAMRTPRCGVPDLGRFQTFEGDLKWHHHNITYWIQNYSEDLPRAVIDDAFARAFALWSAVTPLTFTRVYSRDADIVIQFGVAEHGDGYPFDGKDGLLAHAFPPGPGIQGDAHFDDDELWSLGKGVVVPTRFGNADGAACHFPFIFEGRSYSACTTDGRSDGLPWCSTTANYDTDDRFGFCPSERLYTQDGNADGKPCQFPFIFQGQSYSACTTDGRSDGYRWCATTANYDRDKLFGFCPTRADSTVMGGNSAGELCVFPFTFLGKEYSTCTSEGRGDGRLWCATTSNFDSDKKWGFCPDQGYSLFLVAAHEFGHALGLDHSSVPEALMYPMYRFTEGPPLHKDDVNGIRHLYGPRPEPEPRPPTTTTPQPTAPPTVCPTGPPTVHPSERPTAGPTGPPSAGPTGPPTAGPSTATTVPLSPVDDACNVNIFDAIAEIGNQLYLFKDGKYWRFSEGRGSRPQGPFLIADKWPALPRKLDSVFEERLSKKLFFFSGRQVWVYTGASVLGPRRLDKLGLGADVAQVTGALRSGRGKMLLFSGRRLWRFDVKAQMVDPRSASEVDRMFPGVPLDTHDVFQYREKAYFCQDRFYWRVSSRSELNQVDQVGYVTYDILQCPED
Description: Competitive inhibition of human MMP9 using fluorogenic substrate by Dixon plot analysis

[7] = molecular target: T3, Matrilysin (Homo sapiens) (UniProt P09237); experiment: Competitive inhibition of human MMP7 using fluorogenic substrate at 20 uM by Dixon plot analysis
T3 sequence (whole entry): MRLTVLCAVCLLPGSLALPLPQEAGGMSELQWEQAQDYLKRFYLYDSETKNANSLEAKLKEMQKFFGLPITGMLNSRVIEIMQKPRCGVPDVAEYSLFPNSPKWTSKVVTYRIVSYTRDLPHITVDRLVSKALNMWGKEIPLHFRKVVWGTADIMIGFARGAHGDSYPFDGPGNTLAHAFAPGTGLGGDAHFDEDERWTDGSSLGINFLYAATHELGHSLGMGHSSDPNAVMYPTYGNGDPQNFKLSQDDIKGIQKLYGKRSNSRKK

[8] = molecular target: T1, Interstitial collagenase (Homo sapiens); experiment: Competitive inhibition of human MMP1 using fluorogenic substrate at 100 uM by Dixon plot analysis
[9] = molecular target: T3, Matrilysin (Homo sapiens); experiment: Competitive inhibition of human MMP7 using fluorogenic substrate at 125 uM by Dixon plot analysis
[10] = molecular target: T2, Stromelysin-1
Target sequence in this assay (P08254 whole entry): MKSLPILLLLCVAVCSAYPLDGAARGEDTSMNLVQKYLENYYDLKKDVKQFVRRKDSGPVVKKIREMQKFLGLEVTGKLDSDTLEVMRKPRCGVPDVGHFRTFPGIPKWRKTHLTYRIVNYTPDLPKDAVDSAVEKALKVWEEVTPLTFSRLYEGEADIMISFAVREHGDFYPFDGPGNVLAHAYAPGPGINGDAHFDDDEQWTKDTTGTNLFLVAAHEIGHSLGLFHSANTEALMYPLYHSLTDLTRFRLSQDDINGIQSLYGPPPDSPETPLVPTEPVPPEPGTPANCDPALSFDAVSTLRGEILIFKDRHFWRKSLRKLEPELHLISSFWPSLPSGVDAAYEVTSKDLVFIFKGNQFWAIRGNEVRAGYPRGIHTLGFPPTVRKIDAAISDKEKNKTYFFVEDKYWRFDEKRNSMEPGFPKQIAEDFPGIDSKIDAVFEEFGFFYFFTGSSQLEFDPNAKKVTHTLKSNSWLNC
Description: Competitive inhibition of human MMP3 using fluorogenic substrate by Dixon plot analysis

[11] = molecular target: T1, Interstitial collagenase (Homo sapiens); experiment: Competitive inhibition of human MMP1 using fluorogenic substrate at 60 uM by Dixon plot analysis
[12] = molecular target: T2, Stromelysin-1; experiment: Competitive inhibition of human MMP3 using fluorogenic substrate at 60 uM by Dixon plot analysis
Target sequence in this assay (P08254 100-477 limits assumed): as the sequence (P08254 100-477 limits assumed) above

[13] = molecular target: T3, Matrilysin (Homo sapiens); experiment: Competitive inhibition of human MMP7 using fluorogenic substrate at 10 uM by Dixon plot analysis
[14] = molecular target: T3, Matrilysin (Homo sapiens); experiment: Competitive inhibition of human MMP7 using fluorogenic substrate at 75 uM by Dixon plot analysis
[15] = molecular target: T4, Interstitial collagenase (Homo sapiens, UniProt P03956)
T4 sequence (P03956 whole entry): T1 sequence (whole entry)
Description: Competitive inhibition of human MMP1 using fluorogenic substrate by Dixon plot analysis

[16] = molecular target: T5, Matrilysin (Homo sapiens, UniProt P09237)
T5 sequence (P09237 whole entry): T3 sequence (whole entry)
Description: Competitive inhibition of human MMP7 using fluorogenic substrate by Dixon plot analysis

[17] = molecular target: T1, Interstitial collagenase (Homo sapiens); experiment: Competitive inhibition of human MMP1 using fluorogenic substrate at 50 uM by Dixon plot analysis
[18] = test system: Liver microsomes; experiment: Drug metabolism in rat liver microsomes assessed as 4-(4-(thiiran-2-ylmethylsulfonyl)phenoxy)benzaldehyde formation at 50 uM after 15 mins by tandem MS analysis; assay type: ADME, Microsome; conditions: 0.25 h
[19] = test system: Liver microsomes; experiment: Drug metabolism in rat liver microsomes assessed as 4-(4-(thiiran-2-ylmethylsulfonyl)phenoxy)benzoic acid formation at 50 uM after 15 mins by tandem MS analysis; assay type: ADME, Microsome; conditions: 0.25 h
[20] = test system: Liver microsomes; experiment: Drug metabolism in rat liver microsomes assessed as 4-(4-(hydroxymethyl)phenoxy)benzenesulfinic acid formation at 50 uM after 15 mins by tandem MS analysis; assay type: ADME, Microsome; conditions: 0.25 h

## O=S(=O)(CC1CS1)c1ccc(Oc2ccc(OC(F)(F)F)cc2)cc1 (racemic)
[1]
  inhibition: 3%
[2]
  inhibition: 14%
[3]
  Ki: 110 nM
[4]
  t1/2: 7.3 min
[5]
  Ki: 5080 nM
[6]
  Ki: 930 nM
[7]
  inhibition: inactive

## O=S(=O)(CC1CS1)c1ccc(Oc2ccc(F)cc2)cc1 (racemic)
[1]
  inhibition: inactive
[2]
  inhibition: 50%
[3]
  Ki: 61 nM
[4]
  t1/2: 3.7 min
[5]
  Ki: 580 nM
[6]
  Ki: 44 nM
[7]
  inhibition: 9%

## O=S(=O)(CC1CS1)c1ccc(Oc2cccc(F)c2)cc1 (racemic)
[3]
  Ki: 450 nM
[8]
  inhibition: 7%
[4]
  t1/2: 2.9 min
[5]
  Ki: 190 nM
[9]
  inhibition: inactive
[6]
  Ki: 3000 nM
[10]
  Ki: 27 µM

## O=S(=O)(CC1CS1)c1ccc(Oc2ccccc2)cc1 (stereo not given)
[4]
  t1/2: 4.4 min
[5]
  Ki: 37 nM

## O=S(=O)(CC1CS1)c1ccc(Oc2ccc(I)cc2)cc1 (racemic)
[11]
  inhibition: inactive
[12]
  inhibition: 18%
[3]
  Ki: 600 nM
[13]
  inhibition: inactive
[4]
  t1/2: 7.2 min
[6]
  Ki: 290 nM

## COCOc1ccc(Oc2ccc(S(=O)(=O)CC3CS3)cc2)cc1 (racemic)
[3]
  Ki: 180 nM
[8]
  inhibition: 6%
[14]
  inhibition: 19%
[4]
  t1/2: 7.7 min
[5]
  Ki: 140 nM
[6]
  Ki: 160 nM
[10]
  Ki: 12 µM

## O=S(=O)(CC1CS1)c1ccc(Oc2ccc(O)cc2)cc1 (racemic)
[3]
  Ki: 6 nM
[15]
  Ki: 128 µM
[4]
  t1/2: 23 min
[5]
  Ki: 90 nM
[16]
  Ki: 31 µM
[10]
  Ki: 2.2 µM

## CC(C)Oc1ccc(Oc2ccc(S(=O)(=O)CC3CS3)cc2)cc1 (racemic)
[3]
  Ki: 300 nM
[17]
  inhibition: 11%
[5]
  Ki: 280 nM
[6]
  Ki: 470 nM
[10]
  Ki: 17 µM
[7]
  inhibition: 30%

## CS(=O)(=O)Oc1ccc(Oc2ccc(S(=O)(=O)CC3CS3)cc2)cc1 (racemic)
[4]
  t1/2: 27 min
[10]
  Ki: 0.575 µM

## O=S(=O)(CC1CS1)c1ccc(Oc2ccc(CO)cc2)cc1 (racemic)
[18]
  Drug metabolism: Active
[3]
  Ki: 78 nM
[19]
  Drug metabolism: Active
[15]
  Ki: 205 µM
[4]
  t1/2: 13 min
[5]
  Ki: 215 nM
[6]
  Ki: 390 nM
[16]
  Ki: 48.5 µM
[10]
  Ki: 4.1 µM
[20]
  Drug metabolism: Active
